# Data published in patent US20050124632A1, “Remedies and/or preventives for diabetic ischemic heart diseases” (priority 2001, published 2005).
# Legend:
# [1] = system: contractile protein system; experiment: Relation between Ca concentration and contractile force in saponin-skinned papillary muscle fibers under acidosis (pH 6.6); format: cell-based, Wistar rats; settings: for Hill n / Maximum Force / PCa50 / Resting Force: acidosis (pH6.6) + 1 μM MCC-135
# Procedure: Diabetic cardiomyopathy model is prepared in a similar manner to that in Example 1. The rats 7 months after the administration of STZ were subjected to the experiments in a similar manner to that in Example 1. The rats were sacrificed and the hearts of the rats were isolated 7 months after the administration of STZ. The following experiment was conducted according to the method of Kitada et al. which is the same as that in the Example 1. Left ventricular papillary muscles were cut off from the isolated heart in an ice cooled Krebs-Henseleit solution, and contraction-relaxation function of the papillary muscles was measured by Magnus method. Some of the papillary muscles were applied to a functional analysis on a relation between various calcium ion (Ca) concentrations and contractile force by skinned fiber method with saponin treatment. Acidosis was induced by lowering the pH of the solution from 7.0 in normal to 6.6. A mode of change of relation between the various calcium ion (Ca) concentrations and the contractile forces in the presence or absence of MCC-135 was studied.
# [2] = system: Ca leakage from sarcoplasmic reticulum; experiment: Ca leakage from sarcoplasmic reticulum in saponin-skinned papillary muscle fiber preparations (caffeine-induced tension as index); format: cell-based, Wistar rats; settings: MCC-135 10^-7 M to 10^-5 M, skinned fiber preparation
# Procedure: Diabetic cardiomyopathy was induced in 7-week old Wistar rats by an intravenous injection of 40 mg/kg of Streptozotocin via each tail (purchased from Sigma, hereinafter may be referred to as “STZ”) (J. Exp. Med., 1979, 149: 623-631). Since a severe cardiac dysfunction is observed 5 to 6 months after the administration of STZ (Malone, J. I., Schocken, D. D., Morrison, A. D., Gilbert-Barness, E., Diabetic cardiomyopathy and carnitine deficiency. J-Diabetes-Complications. 1999, 13(2): 86-90), the rats were subjected to the experiments 7 months after the administration of STZ. The rats were sacrificed and the hearts of the rats were isolated 7 months after the administration of STZ. The following experiment was conducted according to the method of Kitada et al. (J. Pharmacol. Exp. Ther. 1987, 243: 633-638). Skinned fiber preparations were prepared by saponin treatments of papillary muscles of the hearts isolated from the rats 7 months after the administration of STZ and the control rats. A medium for the preparations was changed from Ca (calcium ion) free buffer solution to a solution of pCa 6.7 to have sarcoplasmic reticulum uptake a certain amount of Ca in the presence of ATP. […]
smiles,measurement,setting,value
"Cc1ccc(N2CCNCC2)c(S(=O)(=O)O)c1.O [MCC-135, 5-methyl-2-(1-piperazinyl)benzenesulfonic acid monohydrate]",effect on the action of acidosis on cardiac muscle,[1]; diabetic cardiomyopathy,blocked the action of acidosis in the diabetic cardiomyopathy
same,effect on the action of acidosis on cardiac muscle,[1]; normal hearts,had no effect on the action of acidosis on the normal hearts
same,Hill n,[1]; normal rat,3.17 ± 0.42
same,Maximum Force,[1]; normal rat,0.371 ± 0.027 mN/mm^2
same,PCa50,[1]; normal rat,5.43 ± 0.01
same,Resting Force,[1]; normal rat,0 ± 0 n.s mN/mm^2
same,Hill n,[1]; rat with cardiomyopathy,2.12 ± 0.20
same,Maximum Force,[1]; rat with cardiomyopathy,"0.286 ± 0.020**, *** mN/mm^2"
same,PCa50,[1]; rat with cardiomyopathy,5.55 ± 0.07
same,Resting Force,[1]; rat with cardiomyopathy,"0.000 ± 0.000**, *** mN/mm^2"
same,effect on Ca leakage from sarcoplasmic reticulum,[2]; normal rats,had no effect
same,effect on Ca leakage from sarcoplasmic reticulum,"[2]; rats with diabetic cardiomyopathy (STZ, 7 months)",inhibited Ca leakage from the sarcoplasmic reticulum with diabetic cardiomyopathy in a concentration-dependant manner
